Source: ChEMBL document CHEMBL1201862, “PubChem BioAssay data set” (2004)
The source made the active and inactive calls.

Assays:
[1] = biological target: T1, Mitochondrial peptide methionine sulfoxide reductase (Bos taurus, UniProt P54149); assay: Absorbance-based biochemical high throughput dose response assay for activators of Methionine sulfoxide reductase A (MsrA).; format: functional
T1 sequence (P54149 whole entry): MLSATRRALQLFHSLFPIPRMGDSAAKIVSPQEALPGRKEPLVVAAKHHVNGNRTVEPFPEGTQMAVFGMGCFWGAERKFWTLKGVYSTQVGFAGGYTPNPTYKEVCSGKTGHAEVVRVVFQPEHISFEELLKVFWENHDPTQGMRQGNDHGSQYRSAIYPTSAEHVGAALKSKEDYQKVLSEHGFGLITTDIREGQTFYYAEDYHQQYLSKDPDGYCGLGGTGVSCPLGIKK

[2] = biological target: T2, DNA repair protein RAD52 homolog (Homo sapiens, UniProt P43351); format: functional, biochemical
T2 sequence (P43351 whole entry): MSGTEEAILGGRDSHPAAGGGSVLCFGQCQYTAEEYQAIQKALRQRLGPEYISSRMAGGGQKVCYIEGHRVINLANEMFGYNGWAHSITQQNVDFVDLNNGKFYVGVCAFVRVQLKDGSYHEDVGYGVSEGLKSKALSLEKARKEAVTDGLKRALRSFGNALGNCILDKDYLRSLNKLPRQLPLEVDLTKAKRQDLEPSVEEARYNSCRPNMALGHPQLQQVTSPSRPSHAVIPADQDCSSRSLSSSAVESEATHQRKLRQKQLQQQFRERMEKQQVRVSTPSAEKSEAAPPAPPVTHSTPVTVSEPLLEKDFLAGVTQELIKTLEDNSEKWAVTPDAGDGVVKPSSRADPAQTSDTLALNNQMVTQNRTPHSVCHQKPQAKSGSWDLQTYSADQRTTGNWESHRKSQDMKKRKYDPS

[3] = inhibition of ARNT PAS-B/TACC3 complex formation – biochemical, AlphaScreen, cherry-picked samples, confirmation (AID 651703); format: functional, Homo sapiens;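 also: His-tagged ARNT PAS-B domain paired with GST-TACC3 E629A dimer coactivator fragment; potency of inhibitors that break up the complex and lower AlphaScreen signal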
Vero = assay: cells; format: functional; conditions: Chlorocebus sabaeus
[4] = NIH3T3 cell viability loss – ATP luminescence, mouse fibroblasts, counter-screen, dose response (AID 2010); format: functional, cell-based;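 also: cells exposed to compound for about 90 hours before reading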
[5] = Trypanosoma cruzi growth suppression in host cells – NIH3T3 host cells, beta-gal luminescence, confirmation (AID 2044); format: functional, cell-based;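 also: intracellular parasites grown in NIH/3T3 mouse fibroblasts as host cells; luminescent beta-galactosidase reporter signal from transgenic T. cruzi replicating inside host cells; inhibitors lower the luminescence signal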
[6] = bead-based luminescence quenchers, dual-tagged ARNT – biochemical, AlphaScreen, cherry-pick, artefact control for ARNT-TACC3 interaction inhibitor project, dose response (AID 651705); format: functional;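 also: AlphaScreen bead proximity signal that flags compounds interfering with the detection technology; potency reflects signal decrease which marks the compound as an assay artifact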
Cytochrome P450 2C19 = Cytochrome P450 2C19 (Homo sapiens, UniProt P33261); assay: Cytochrome panel assay with activity outcomes. Panel member name: p450-cyp2c19 Compounds with AC50 equal or less than 10 uM are considered active; format: functional; conditions: read-out: AC50
Leucine aminopeptidase = biological target: T3, Leucine aminopeptidase (Plasmodium falciparum 3D7, UniProt Q8IL11); assay: P. falciparum M17LAP inhibitors, primary screen, biochemical, fluorogenic H-Leu-NHMec substrate, 1536-well (AID 1619); format: functional
T3 sequence (Q8IL11 whole entry): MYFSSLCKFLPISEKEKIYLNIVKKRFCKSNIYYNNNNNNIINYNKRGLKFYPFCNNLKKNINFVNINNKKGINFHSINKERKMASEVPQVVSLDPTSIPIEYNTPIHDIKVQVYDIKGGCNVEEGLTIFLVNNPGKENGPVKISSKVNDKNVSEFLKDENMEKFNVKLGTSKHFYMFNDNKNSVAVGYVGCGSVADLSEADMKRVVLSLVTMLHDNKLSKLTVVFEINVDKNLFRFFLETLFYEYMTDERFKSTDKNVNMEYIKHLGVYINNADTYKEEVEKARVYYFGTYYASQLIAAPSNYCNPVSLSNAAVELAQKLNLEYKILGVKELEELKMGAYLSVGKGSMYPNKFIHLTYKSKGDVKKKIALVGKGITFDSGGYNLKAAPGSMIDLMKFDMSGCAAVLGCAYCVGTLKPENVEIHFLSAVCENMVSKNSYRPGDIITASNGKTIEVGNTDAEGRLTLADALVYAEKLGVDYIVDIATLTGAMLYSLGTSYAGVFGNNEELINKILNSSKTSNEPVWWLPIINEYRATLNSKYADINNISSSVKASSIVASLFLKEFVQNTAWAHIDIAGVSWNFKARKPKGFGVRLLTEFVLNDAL

Cytochrome P450 2C9 = Cytochrome P450 2C9 (Homo sapiens, UniProt P11712)
[7] = biological target: T4, Sentrin-specific protease 8 (Homo sapiens, UniProt Q96LD8); assay: inhibition of human SENP8 cleavage activity – biochemical, luminescence, SAR follow-up (AID 504501); format: functional
T4 sequence (Q96LD8 whole entry): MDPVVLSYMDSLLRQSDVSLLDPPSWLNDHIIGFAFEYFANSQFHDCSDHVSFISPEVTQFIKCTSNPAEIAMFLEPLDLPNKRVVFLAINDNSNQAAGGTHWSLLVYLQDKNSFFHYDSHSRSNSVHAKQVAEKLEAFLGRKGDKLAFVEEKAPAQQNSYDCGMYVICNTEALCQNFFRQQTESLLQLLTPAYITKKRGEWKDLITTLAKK

[8] = biological target: T5, Sentrin-specific protease 6 (Homo sapiens, UniProt Q9GZR1); assay: SAR Analysis of small molecule inhibitors of Sentrin-specific protease 6 (SENP6) using a Luminescent assay. [Related pubchem assays (depositor defined):AID2582, AID2599]; format: functional
T5 sequence (Q9GZR1 whole entry): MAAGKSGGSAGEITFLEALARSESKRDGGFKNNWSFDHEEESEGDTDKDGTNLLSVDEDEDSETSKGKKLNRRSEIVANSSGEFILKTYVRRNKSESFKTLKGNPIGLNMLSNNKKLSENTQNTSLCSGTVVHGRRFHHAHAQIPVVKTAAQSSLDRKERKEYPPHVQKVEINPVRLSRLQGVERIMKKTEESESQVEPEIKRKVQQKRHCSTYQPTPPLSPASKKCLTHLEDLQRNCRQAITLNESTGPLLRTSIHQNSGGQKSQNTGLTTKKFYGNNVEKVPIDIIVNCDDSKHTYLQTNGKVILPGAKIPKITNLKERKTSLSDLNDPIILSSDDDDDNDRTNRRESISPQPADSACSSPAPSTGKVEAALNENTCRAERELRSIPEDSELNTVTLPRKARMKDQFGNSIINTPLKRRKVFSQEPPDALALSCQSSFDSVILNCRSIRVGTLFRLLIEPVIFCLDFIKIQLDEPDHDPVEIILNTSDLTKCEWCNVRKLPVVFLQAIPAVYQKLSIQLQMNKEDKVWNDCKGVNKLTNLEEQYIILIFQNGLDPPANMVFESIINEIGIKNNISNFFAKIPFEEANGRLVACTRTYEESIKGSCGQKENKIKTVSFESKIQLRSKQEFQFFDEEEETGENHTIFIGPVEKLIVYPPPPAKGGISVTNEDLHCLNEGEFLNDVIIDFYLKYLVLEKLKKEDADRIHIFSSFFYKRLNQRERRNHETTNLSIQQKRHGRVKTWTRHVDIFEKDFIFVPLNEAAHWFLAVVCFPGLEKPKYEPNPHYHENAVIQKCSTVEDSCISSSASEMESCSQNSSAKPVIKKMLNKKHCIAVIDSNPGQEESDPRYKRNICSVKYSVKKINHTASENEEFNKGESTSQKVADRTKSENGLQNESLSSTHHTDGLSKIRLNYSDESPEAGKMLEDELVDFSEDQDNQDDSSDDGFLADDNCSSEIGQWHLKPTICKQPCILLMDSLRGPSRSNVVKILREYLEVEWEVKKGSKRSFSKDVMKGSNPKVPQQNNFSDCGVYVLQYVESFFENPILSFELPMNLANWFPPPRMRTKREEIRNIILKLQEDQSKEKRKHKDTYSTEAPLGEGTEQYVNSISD

Caspase-3 = biological target: T6, Caspase-3 (Homo sapiens, UniProt P42574); assay: SAR Analysis of small molecule inhibitors of Sentrin-specific proteases (SENPs) using a Caspase-3 Selectivity assay. [Related pubchem assays (depositor defined):AID2540, AID2599, AID434973, AID489001]; format: functional
T6 sequence (P42574 whole entry): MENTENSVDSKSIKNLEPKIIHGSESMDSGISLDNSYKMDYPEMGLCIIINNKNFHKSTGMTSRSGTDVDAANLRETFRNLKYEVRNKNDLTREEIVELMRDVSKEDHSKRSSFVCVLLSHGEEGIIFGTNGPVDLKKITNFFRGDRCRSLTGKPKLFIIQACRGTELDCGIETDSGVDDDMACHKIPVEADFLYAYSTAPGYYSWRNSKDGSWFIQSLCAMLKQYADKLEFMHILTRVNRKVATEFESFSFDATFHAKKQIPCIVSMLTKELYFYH

[9] = biological target: T7, Sentrin-specific protease 7 (Homo sapiens, UniProt Q9BQF6); assay: inhibition of human SENP7 cleavage activity – biochemical, luminescence, SAR follow-up (AID 504497); format: functional
T7 sequence (Q9BQF6 whole entry): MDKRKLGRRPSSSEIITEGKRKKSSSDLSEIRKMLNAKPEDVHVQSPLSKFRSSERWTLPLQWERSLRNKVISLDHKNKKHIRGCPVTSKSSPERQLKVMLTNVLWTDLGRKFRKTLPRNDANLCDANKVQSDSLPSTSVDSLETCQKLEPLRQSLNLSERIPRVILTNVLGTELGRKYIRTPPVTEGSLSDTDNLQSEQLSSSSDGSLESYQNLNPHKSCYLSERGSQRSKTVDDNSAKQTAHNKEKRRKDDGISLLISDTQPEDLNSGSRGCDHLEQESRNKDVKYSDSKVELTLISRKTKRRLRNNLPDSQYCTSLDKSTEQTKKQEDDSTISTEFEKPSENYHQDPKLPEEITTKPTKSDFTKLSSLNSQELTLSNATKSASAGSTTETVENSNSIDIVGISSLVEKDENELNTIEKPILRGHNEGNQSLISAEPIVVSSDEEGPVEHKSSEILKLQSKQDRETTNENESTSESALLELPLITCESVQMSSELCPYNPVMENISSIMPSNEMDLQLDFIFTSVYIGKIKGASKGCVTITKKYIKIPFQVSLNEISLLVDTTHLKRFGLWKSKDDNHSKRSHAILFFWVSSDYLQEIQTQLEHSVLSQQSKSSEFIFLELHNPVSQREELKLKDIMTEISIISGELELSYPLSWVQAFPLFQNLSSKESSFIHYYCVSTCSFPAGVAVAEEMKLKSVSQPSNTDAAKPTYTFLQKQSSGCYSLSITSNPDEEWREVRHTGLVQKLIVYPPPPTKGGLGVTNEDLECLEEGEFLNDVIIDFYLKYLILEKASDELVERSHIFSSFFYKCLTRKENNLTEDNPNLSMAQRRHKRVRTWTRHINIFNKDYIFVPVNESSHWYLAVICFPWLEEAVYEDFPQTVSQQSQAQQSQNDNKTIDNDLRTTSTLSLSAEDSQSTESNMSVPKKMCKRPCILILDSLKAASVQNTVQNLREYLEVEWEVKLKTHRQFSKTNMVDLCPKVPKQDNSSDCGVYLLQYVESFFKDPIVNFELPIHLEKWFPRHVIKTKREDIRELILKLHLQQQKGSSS

Melanocortin receptor 4 = Melanocortin receptor 4 (Homo sapiens, UniProt P32245); format: functional, cell-based;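 also: Cell-based assay with luminescence read-out, confirmatory dose-response testing for agonist activity of biased ligands at MC4R; human U2OS cells with tagged receptor and beta-arrestin; potency of agonists that increase receptor coupling to beta-arrestin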
[10] = biological target: T8, Aryl hydrocarbon receptor (Homo sapiens, UniProt P35869); conditions: Potency;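 also: confirmatory quantitative high-throughput screen measuring activation of the AhR signaling pathway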
T8 sequence (P35869 whole entry): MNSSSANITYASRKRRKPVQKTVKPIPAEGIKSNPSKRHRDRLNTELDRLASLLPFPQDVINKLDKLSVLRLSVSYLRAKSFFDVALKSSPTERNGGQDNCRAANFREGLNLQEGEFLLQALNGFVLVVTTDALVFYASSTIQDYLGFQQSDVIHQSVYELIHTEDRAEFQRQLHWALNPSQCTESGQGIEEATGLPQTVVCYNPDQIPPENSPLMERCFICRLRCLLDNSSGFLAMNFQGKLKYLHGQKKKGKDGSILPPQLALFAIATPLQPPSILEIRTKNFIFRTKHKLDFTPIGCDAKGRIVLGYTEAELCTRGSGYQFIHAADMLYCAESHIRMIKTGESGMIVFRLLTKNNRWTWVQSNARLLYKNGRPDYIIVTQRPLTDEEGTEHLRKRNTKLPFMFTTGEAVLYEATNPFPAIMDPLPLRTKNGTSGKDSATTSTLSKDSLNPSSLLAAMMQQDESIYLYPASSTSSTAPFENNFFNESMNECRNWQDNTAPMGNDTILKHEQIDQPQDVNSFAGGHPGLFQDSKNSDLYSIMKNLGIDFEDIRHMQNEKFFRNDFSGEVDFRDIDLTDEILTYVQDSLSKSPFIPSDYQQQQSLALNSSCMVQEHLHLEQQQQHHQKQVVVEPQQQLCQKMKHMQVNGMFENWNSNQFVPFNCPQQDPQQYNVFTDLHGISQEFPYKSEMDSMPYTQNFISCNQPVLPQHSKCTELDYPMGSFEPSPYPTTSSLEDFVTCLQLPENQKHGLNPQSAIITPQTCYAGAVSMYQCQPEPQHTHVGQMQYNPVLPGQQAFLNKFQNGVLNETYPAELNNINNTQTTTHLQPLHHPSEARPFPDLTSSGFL

Chain of Cytochrome P450 2C9 (P11712 whole entry): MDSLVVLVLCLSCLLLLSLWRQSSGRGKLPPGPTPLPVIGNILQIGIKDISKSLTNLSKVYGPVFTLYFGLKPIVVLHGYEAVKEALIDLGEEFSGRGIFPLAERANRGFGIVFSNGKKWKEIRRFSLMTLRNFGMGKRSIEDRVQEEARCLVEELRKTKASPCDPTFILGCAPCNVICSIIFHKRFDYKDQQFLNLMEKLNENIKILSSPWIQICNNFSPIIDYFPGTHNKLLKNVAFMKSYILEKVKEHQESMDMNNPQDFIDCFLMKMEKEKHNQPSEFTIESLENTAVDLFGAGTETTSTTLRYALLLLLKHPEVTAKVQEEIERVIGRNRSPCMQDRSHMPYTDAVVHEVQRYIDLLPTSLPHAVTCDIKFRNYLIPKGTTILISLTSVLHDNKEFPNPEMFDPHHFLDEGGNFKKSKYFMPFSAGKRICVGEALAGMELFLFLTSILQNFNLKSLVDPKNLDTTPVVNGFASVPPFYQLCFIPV
Chain of Melanocortin receptor 4 (P32245 whole entry): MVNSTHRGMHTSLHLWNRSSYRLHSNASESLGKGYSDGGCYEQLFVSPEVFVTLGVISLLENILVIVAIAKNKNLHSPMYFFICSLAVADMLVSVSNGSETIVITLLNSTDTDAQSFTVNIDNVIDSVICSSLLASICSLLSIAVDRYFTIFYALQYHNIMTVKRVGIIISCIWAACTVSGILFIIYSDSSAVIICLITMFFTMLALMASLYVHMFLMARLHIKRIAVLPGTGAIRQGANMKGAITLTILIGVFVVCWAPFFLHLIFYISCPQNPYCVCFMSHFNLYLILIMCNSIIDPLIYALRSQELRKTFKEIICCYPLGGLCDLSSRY
Chain of Cytochrome P450 2C19 (P33261 whole entry): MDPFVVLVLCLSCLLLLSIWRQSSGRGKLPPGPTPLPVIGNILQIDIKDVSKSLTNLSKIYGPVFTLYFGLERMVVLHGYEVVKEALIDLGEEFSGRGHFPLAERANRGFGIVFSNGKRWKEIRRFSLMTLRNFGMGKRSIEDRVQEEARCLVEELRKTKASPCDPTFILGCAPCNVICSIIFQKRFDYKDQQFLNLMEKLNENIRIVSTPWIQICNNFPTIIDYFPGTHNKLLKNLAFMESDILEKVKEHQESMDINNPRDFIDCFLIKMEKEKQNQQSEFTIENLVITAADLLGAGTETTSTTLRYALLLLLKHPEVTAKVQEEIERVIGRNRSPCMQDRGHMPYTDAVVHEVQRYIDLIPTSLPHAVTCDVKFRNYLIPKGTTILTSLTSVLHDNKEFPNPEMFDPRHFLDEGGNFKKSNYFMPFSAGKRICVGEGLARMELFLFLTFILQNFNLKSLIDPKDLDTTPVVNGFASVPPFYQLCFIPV

Cc1ccc(C)c2nc3sc(C(=O)N4CCOCC4)c(N)c3cc12
EC50 [1]: > 104 µM (inactive)

COc1cc2nc(Nc3ccc(C)c(C)c3)nc(N)c2cc1OC
AC50 [2]: 5.47 µM (active) | AC50 [3]: 74.1 µM (active) | CC50 (Vero): 14.8 µM (active) | EC50 [4]: > 30 µM (not active) | EC50 [5]: 0.559 µM (active) | AC50 [6]: 89.2 µM (active)

Sc1nc2cc(Cl)ccc2s1
AC50 (Cytochrome P450 2C19): 11.2 µM (inconclusive) | IC50 (Leucine aminopeptidase): 14.8 µM (active) | EC50 [1]: > 104 µM (inactive) | AC50 (Cytochrome P450 2C9): 39.8 µM (inconclusive)

CS(=O)(=O)c1ccc(N/N=C/c2c[nH]c3ccccc23)cc1
IC50 [7]: > 99 µM (inactive) | IC50 [8]: > 99 µM (inactive) | IC50 (Caspase-3): > 99 µM (inactive) | IC50 [9]: > 99 µM (inactive)

O=C(NC(c1ccc(Cl)cc1)c1ccccn1)C1CCN(CCOc2ccc(Cl)cc2Cl)CC1 (stereo unspecified)
EC50 (Melanocortin receptor 4): > 89.2 µM (inactive)

COc1ccc(C(=O)Nc2ccc3ccccc3c2)cc1Br
IC50 [7]: > 99 µM (inactive) | IC50 [8]: > 99 µM (inactive) | IC50 (Caspase-3): > 99 µM (inactive) | IC50 [9]: > 99 µM (inactive)

COP(=O)(OC)SCn1c(=O)oc2cc(Cl)cnc21 [AZAMETHIPHOS]
AC50 [10]: 44.7 µM (inconclusive)
